This passage reports IC50 results from BindingDB's records for doi:10.1021/jm034188j (Morphochem, 2004).

The target in this experiment is Methionine aminopeptidase (Staphylococcus aureus (strain MW2), UniProt P0A079). Nature of the experiment: MetAP Inhibition Assay. The following applies: pH 7.5; 22 °C. On the procedure: The MetAP reaction with Co2+ as a cofactor is coupled to a prolyl aminopeptidase (ProAP) using Met-Pro-p-nitroanilide as substrate. MetAP-catalyzed cleavage of the N-terminal methionine produces prolyl-p-nitroanilide, which is rapidly hydrolyzed by ProAP to release a chromogenic product. This allows the MetAP reaction to be continuously monitored at 405 nm on a UVVIS spectrophotometer. The initial rate was calculated from the early part of the reaction progress curve (<5 min). Activity assays were performed in triplicate using eight to 16 concentrations of substrate or inhibitor.
Sequence of Methionine aminopeptidase (P0A079 whole entry): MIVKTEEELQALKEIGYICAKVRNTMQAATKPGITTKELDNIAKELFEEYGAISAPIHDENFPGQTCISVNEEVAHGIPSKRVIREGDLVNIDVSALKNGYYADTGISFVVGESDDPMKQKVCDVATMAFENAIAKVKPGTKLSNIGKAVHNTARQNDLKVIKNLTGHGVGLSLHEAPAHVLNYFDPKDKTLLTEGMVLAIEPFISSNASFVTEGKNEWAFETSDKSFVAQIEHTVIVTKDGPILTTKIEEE

Structures are written as SMILES.

In general, IC50 refers to the point on the concentration scale where inhibition reaches its midpoint. `CSCC[C@H](N)C(=O)c1ccccn1` [(2S)-2-amino-4-(methylsulfanyl)-1-(pyridin-2-yl)butan-1-one] registered an IC50 of 16 µM. This counts as double-digit micromolar.

On to `CSCC[C@H](N)C(=O)c1nccs1` [(2S)-2-amino-4-(methylsulfanyl)-1-(1,3-thiazol-2-yl)butan-1-one], for which the concentration for half-maximal inhibition (IC50) was determined as 19 µM.
